# Literature values in Sander's compilation of Henry's law constants (doi:10.1016/j.chroma.2007.11.025).
# Assay: Henry solubility constant Hcp at 298.15 K (mol/(m3 Pa))
# Conditions: reference: Sieg et al. (2008); cited value
row,Henry solubility constant Hcp,SMILES
1,0.0018,c1ccccc1 [benzene]
2,0.0055,CCCCCCCCCC=O [decanal]
3,0.0013,CCc1ccccc1 [ethylbenzene]
4,0.0016,Fc1ccccc1 [fluorobenzene]
5,0.037,CCCCCCC=O [heptanal]
6,0.014,CCCCCCCCC=O [nonanal]
7,0.019,CCCCCCCC=O [octanal]

row,SMILES,Henry solubility constant Hcp
1,"Cc1ccccc1C [1,2-dimethylbenzene]",0.0019
2,"Cc1cccc(C)c1 [1,3-dimethylbenzene]",0.0014
3,"Cc1ccc(C)cc1 [1,4-dimethylbenzene]",0.0014
4,ClCCBr [1-chloro-2-bromoethane],0.011
5,Cc1ccccc1 [methylbenzene],0.0015
